Like-named read-outs stand apart in the source and are kept apart here. *1 amine or outer side, *2 acyl side, *3 side chain or, on linkers, in order; H or OH if unused. Where a SMILES comes first, the peptide text is derived from it. Side-chain parts run from the residue outwards. [ ]: non-standard residue; d: D form. The star is where a group is joined. αMePhe(2-F) = C[C@](N)(Cc1ccccc1F)C(=O)O; γGlu = O=C(O)[C@H](CCC(=O)[*:2])N[*:1]; αMeY = C[C@](N)(Cc1ccc(O)cc1)C(=O)O; αMeF = C[C@](N)(Cc1ccccc1)C(=O)O; 4Pal = N[C@@H](Cc1ccncc1)C(=O)O; αMeL = CC(C)C[C@](C)(N)C(=O)O; Lauroyl = CCCCCCCCCCCC(=O)*; Orn = NCCC[C@H](N)C(=O)O; AEEA = NCCOCCOCC(=O)O; Aib = CC(C)(N)C(=O)O
How the values were obtained:
Format in all cases: cell-based
hGIPR = target: T1, hGIPR (Homo sapiens, UniProt P48546); assay: Functional cAMP formation (HTRF) in HEK-293 clonal cells expressing hGIPR, 0.1% bovine casein, without or with 1.0% human serum albumin; conditions: 37° C.; for Emax: HEK293, cAMP, percent of maximal response to GIP(1-42)NH2, read-out: hGIPR Emax, % ± SEM; for EC50: cAMP, read-out: hGIPR EC50, nM (SEM, n)
T1 construct: expressed in transfected cells
T1 sequence (P48546 22-466): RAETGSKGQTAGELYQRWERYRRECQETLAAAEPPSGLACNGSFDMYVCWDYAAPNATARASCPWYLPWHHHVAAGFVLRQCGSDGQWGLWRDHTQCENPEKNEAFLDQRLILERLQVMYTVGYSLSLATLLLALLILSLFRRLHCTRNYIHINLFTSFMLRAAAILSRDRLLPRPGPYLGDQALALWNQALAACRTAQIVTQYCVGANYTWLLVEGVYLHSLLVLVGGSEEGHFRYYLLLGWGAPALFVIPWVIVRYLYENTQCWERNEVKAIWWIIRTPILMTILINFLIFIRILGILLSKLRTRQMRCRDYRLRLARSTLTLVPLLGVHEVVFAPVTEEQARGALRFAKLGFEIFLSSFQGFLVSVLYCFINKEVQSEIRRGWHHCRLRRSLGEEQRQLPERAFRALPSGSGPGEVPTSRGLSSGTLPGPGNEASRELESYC
How it was run: (§1)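 Cells were stimulated with peptide for 30 min at 37° C, then intracellular cAMP was measured by competitive HTRF (665/620 nm ratio) and converted to nM using a cAMP standard curve. Relative EC50 and Emax came from four-parameter logistic fits of percent maximal response against peptide concentration.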

hGCGR = target: T2, hGCGR (Homo sapiens, UniProt P47871); assay: Functional cAMP formation (HTRF) in HEK-293 clonal cells expressing hGCGR, 0.1% bovine casein, without or with 1.0% human serum albumin; conditions: cAMP, 37° C., read-out: hGCGR EC50, nM (SEM, n)
T2 construct: expressed in transfected cells
How it was run: as §1

hGLP-1R = hGLP-1R (Homo sapiens, UniProt P43220); assay: Functional cAMP formation (HTRF) in HEK-293 clonal cells expressing hGLP-1R, 0.1% bovine casein, without or with 1.0% human serum albumin; parameters: expressed in transfected cells; conditions: 37° C.; for Emax: HEK293, cAMP, percent of maximal response to GLP-1(7-36)NH2, read-out: hGLP-1R Emax, % ± SEM; for EC50: cAMP, read-out: hGLP-1R EC50, nM (SEM, n)
How it was run: as §1

[1] = 0.1% bovine casein and 1.0% human serum albumin
[2] = 0.1% bovine casein, arithmetic mean
[3] = 0.1% bovine casein (no human serum albumin), geometric mean
[4] = 0.1% bovine casein and 1.0% human serum albumin, geometric mean (SEM, n)

T2 sequence (P47871 26-477): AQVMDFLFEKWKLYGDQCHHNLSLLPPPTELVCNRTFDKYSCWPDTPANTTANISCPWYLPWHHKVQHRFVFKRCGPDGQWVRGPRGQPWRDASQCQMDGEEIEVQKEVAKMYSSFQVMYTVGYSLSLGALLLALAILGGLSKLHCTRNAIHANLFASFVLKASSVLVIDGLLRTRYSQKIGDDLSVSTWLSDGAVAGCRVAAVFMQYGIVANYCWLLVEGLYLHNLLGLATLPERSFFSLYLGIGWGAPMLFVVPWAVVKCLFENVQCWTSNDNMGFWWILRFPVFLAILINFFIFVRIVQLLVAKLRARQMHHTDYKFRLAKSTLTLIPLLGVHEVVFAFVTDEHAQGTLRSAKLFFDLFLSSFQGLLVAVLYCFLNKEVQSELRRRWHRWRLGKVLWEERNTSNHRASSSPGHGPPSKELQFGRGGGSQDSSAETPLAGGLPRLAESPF
Chain of hGLP-1R (P43220 24-463): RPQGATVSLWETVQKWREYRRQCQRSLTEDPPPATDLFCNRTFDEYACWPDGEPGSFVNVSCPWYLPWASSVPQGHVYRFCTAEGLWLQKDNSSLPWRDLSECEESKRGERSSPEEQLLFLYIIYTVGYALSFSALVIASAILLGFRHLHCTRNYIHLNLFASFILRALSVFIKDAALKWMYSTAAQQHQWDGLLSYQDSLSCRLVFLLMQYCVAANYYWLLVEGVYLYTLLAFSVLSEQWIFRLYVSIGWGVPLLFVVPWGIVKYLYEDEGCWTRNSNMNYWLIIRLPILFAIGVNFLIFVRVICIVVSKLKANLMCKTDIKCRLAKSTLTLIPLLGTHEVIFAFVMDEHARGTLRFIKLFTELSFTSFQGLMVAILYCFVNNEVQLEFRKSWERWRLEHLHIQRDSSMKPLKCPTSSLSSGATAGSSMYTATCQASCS

| Compound | Emax (hGIPR; [1]) [%] | Emax (hGIPR; [2]) [%] | EC50 (hGIPR; [3]) [nM] | EC50 (hGCGR; [3]) [nM] | EC50 (hGCGR; [4]) [nM] | Emax (hGLP-1R; [2]) [%] | EC50 (hGLP-1R; [3]) [nM] | EC50 (hGLP-1R; [4]) [nM] | Emax (hGLP-1R; [1]) [%] | EC50 (hGIPR; [4]) [nM] |
| --- | --- | --- | --- | --- | --- | --- | --- | --- | --- | --- |
| CCCCCCCCCCCC(=O)N[C@@H](CCC(=O)NCCOCCOCC(=O)NCCCC[C@H](NC(=O)[C@H](CCCN)NC(=O)[C@H](CC(=O)O)NC(=O)[C@H](CC(C)C)NC(=O)[C@](C)(CC(C)C)NC(=O)[C@@H](NC(=O)C(C)(C)NC(=O)[C@H](Cc1ccncc1)NC(=O)[C@H](CC(=O)O)NC(=O)[C@H](CO)NC(=O)[C@@H](NC(=O)[C@](C)(Cc1ccccc1F)NC(=O)[C@@H](NC(=O)CNC(=O)[C@H](CCC(=O)O)NC(=O)C(C)(C)NC(=O)[C@@H](N)Cc1ccc(O)cc1)[C@@H](C)O)[C@@H](C)O)[C@@H](C)CC)C(=O)N[C@@H](C)C(=O)N[C@@H](CCC(N)=O)C(=O)NC(C)(C)C(=O)N[C@@H](CCCCNC(=O)COCCOCCNC(=O)CC[C@H](NC(=O)CCCCCCCCCCC)C(=O)O)C(=O)N[C@@H](Cc1ccccc1)C(=O)N[C@H](C(=O)N[C@H](CCC(=O)O)C(=O)N[C@@](C)(Cc1ccc(O)cc1)C(=O)N[C@@H](CC(C)C)C(=O)N[C@H](C(=O)N[C@@H](CCC(=O)O)C(=O)NCC(=O)NCC(=O)N1CCC[C@H]1C(=O)N[C@@H](CO)C(=O)N[C@@H](CO)C(=O)NCC(=O)N[C@@H](C)C(=O)N1CCC[C@H]1C(=O)N1CCC[C@H]1C(=O)N1CCC[C@H]1C(=O)N[C@@H](CO)C(N)=O)[C@@H](C)CC)[C@@H](C)CC)C(=O)O [Example 426] | 91.2 | 93.3 | 0.0191 | > 9950 | > 9950 | 97.2 | 0.206 | 29.7 |  |  |
| CCCCCCCCCCCC(=O)N[C@@H](CCC(=O)NCCOCCOCC(=O)NCCCC[C@H](NC(=O)[C@H](CCCN)NC(=O)[C@H](CC(=O)O)NC(=O)[C@H](CC(C)C)NC(=O)[C@](C)(CC(C)C)NC(=O)[C@@H](NC(=O)C(C)(C)NC(=O)[C@H](Cc1ccncc1)NC(=O)[C@H](CC(=O)O)NC(=O)[C@H](CO)NC(=O)[C@@H](NC(=O)[C@](C)(Cc1ccccc1F)NC(=O)[C@@H](NC(=O)CNC(=O)[C@H](CCC(=O)O)NC(=O)C(C)(C)NC(=O)[C@@H](N)Cc1ccc(O)cc1)[C@@H](C)O)[C@@H](C)O)[C@@H](C)CC)C(=O)N[C@@H](C)C(=O)N[C@@H](CCC(N)=O)C(=O)NC(C)(C)C(=O)N[C@@H](CCC(=O)O)C(=O)N[C@@H](Cc1ccccc1)C(=O)N[C@H](C(=O)N[C@H](CCC(=O)O)C(=O)N[C@@](C)(Cc1ccc(O)cc1)C(=O)N[C@@H](CC(C)C)C(=O)N[C@H](C(=O)N[C@@H](CCCCNC(=O)COCCOCCNC(=O)CC[C@H](NC(=O)CCCCCCCCCCC)C(=O)O)C(=O)NCC(=O)NCC(=O)N1CCC[C@H]1C(=O)N[C@@H](CO)C(=O)N[C@@H](CO)C(=O)NCC(=O)N[C@@H](C)C(=O)N1CCC[C@H]1C(=O)N1CCC[C@H]1C(=O)N1CCC[C@H]1C(=O)N[C@@H](CO)C(N)=O)[C@@H](C)CC)[C@@H](C)CC)C(=O)O [Example 427] | 92.4 | 95.9 | 0.0132 | > 9950 | > 9950 | 109 | 0.206 | 25.1 | 109 |  |
| CCCCCCCCCCCC(=O)N[C@@H](CCC(=O)NCCOCCOCC(=O)NCCCC[C@H](NC(=O)[C@H](CO)NC(=O)[C@@H]1CCCN1C(=O)[C@@H]1CCCN1C(=O)[C@@H]1CCCN1C(=O)[C@H](C)NC(=O)CNC(=O)[C@H](CO)NC(=O)[C@H](CO)NC(=O)[C@@H]1CCCN1C(=O)CNC(=O)CNC(=O)[C@H](CCC(=O)O)NC(=O)[C@@H](NC(=O)[C@H](CC(C)C)NC(=O)[C@](C)(Cc1ccc(O)cc1)NC(=O)[C@@H](CCC(=O)O)NC(=O)[C@@H](NC(=O)[C@H](Cc1ccccc1)NC(=O)[C@H](CCC(=O)O)NC(=O)C(C)(C)NC(=O)[C@H](CCC(N)=O)NC(=O)[C@H](C)NC(=O)[C@H](CCCCNC(=O)COCCOCCNC(=O)CC[C@H](NC(=O)CCCCCCCCCCC)C(=O)O)NC(=O)[C@H](CCCN)NC(=O)[C@H](CC(=O)O)NC(=O)[C@H](CC(C)C)NC(=O)[C@](C)(CC(C)C)NC(=O)[C@@H](NC(=O)C(C)(C)NC(=O)[C@H](Cc1ccncc1)NC(=O)[C@H](CC(=O)O)NC(=O)[C@H](CO)NC(=O)[C@@H](NC(=O)[C@](C)(Cc1ccccc1F)NC(=O)[C@@H](NC(=O)CNC(=O)[C@H](CCC(=O)O)NC(=O)C(C)(C)NC(=O)[C@@H](N)Cc1ccc(O)cc1)[C@@H](C)O)[C@@H](C)O)[C@@H](C)CC)[C@@H](C)CC)[C@@H](C)CC)C(N)=O)C(=O)O [Example 428] | 93.6 | 95.5 | 0.00797 | > 9950 | > 9950 |  | 0.102 | 10.2 | 105 |  |
| CCCCCCCCCCCC(=O)N[C@@H](CCC(=O)NCCOCCOCC(=O)NCCOCCOCC(=O)NCCCC[C@H](NC(=O)[C@H](CCCN)NC(=O)[C@H](CC(=O)O)NC(=O)[C@H](CC(C)C)NC(=O)[C@](C)(CC(C)C)NC(=O)[C@@H](NC(=O)C(C)(C)NC(=O)[C@H](CCCCNC(=O)COCCOCCNC(=O)COCCOCCNC(=O)CC[C@H](NC(=O)CCCCCCCCCCC)C(=O)O)NC(=O)[C@H](CC(=O)O)NC(=O)[C@H](CO)NC(=O)[C@@H](NC(=O)[C@](C)(Cc1ccccc1F)NC(=O)[C@@H](NC(=O)CNC(=O)[C@H](CCC(=O)O)NC(=O)C(C)(C)NC(=O)[C@@H](N)Cc1ccc(O)cc1)[C@@H](C)O)[C@@H](C)O)[C@@H](C)CC)C(=O)N[C@@H](C)C(=O)N[C@@H](CCC(N)=O)C(=O)NC(C)(C)C(=O)N[C@@H](CCC(=O)O)C(=O)N[C@@](C)(Cc1ccccc1)C(=O)N[C@H](C(=O)N[C@H](CCC(=O)O)C(=O)N[C@@](C)(Cc1ccc(O)cc1)C(=O)N[C@@H](CC(C)C)C(=O)N[C@H](C(=O)N[C@@H](CCC(=O)O)C(=O)NCC(=O)NCC(=O)N1CCC[C@H]1C(=O)N[C@@H](CO)C(=O)N[C@@H](CO)C(=O)NCC(=O)N[C@@H](C)C(=O)N1CCC[C@H]1C(=O)N1CCC[C@H]1C(=O)N1CCC[C@H]1C(=O)N[C@@H](CO)C(N)=O)[C@@H](C)CC)[C@@H](C)CC)C(=O)O [Example 429] | 93.3 |  | 0.00799 | > 9950 | > 9950 | 116 | 0.116 | 17.3 |  |  |
| CCCCCCCCCCCC(=O)N[C@@H](CCC(=O)NCCOCCOCC(=O)NCCOCCOCC(=O)NCCCC[C@H](NC(=O)[C@H](CCCN)NC(=O)[C@H](CC(=O)O)NC(=O)[C@H](CC(C)C)NC(=O)[C@](C)(CC(C)C)NC(=O)[C@@H](NC(=O)C(C)(C)NC(=O)[C@H](Cc1ccncc1)NC(=O)[C@H](CC(=O)O)NC(=O)[C@H](CO)NC(=O)[C@@H](NC(=O)[C@](C)(Cc1ccccc1F)NC(=O)[C@@H](NC(=O)CNC(=O)[C@H](CCC(=O)O)NC(=O)C(C)(C)NC(=O)[C@@H](N)Cc1ccc(O)cc1)[C@@H](C)O)[C@@H](C)O)[C@@H](C)CC)C(=O)N[C@@H](C)C(=O)N[C@@H](CCC(N)=O)C(=O)NC(C)(C)C(=O)N[C@@H](CCCCNC(=O)COCCOCCNC(=O)COCCOCCNC(=O)CC[C@H](NC(=O)CCCCCCCCCCC)C(=O)O)C(=O)N[C@@](C)(Cc1ccccc1)C(=O)N[C@H](C(=O)N[C@H](CCC(=O)O)C(=O)N[C@@](C)(Cc1ccc(O)cc1)C(=O)N[C@@H](CC(C)C)C(=O)N[C@H](C(=O)N[C@@H](CCC(=O)O)C(=O)NCC(=O)NCC(=O)N1CCC[C@H]1C(=O)N[C@@H](CO)C(=O)N[C@@H](CO)C(=O)NCC(=O)N[C@@H](C)C(=O)N1CCC[C@H]1C(=O)N1CCC[C@H]1C(=O)N1CCC[C@H]1C(=O)N[C@@H](CO)C(N)=O)[C@@H](C)CC)[C@@H](C)CC)C(=O)O [Example 430] (H-Y[Aib]EGT[αMePhe(2-F)]TSD[4Pal][Aib]I[αMeL]LD[Orn]K([AEEA-AEEA-γGlu-Lauroyl])AQ[Aib]K([AEEA-AEEA-γGlu-Lauroyl])[αMeF]I[dE][αMeY]LIEGGPSSGAPPPS-NH2) | 91.5 |  | 0.0175 | > 9950 | > 9950 | 93.1 | 0.342 |  | 88.5 | 1.09 |
